From patent publication US6825230B2, “Spiro and dispiro 1,2,4-trixolane antimalarials” (Medicines for Malaria Venture MMV, priority 2002, dated 2004)
In brackets after ≈: the same amount, converted by molar mass.

Experiments:
[1] = system: Schistosoma mansoni 21-day-old schistosomules; test: Effect on 21-day-old schistosomules in infected mice; format: in vivo
Description: Mice were infected with 100 Schistosoma mansoni cercariae on day 21 post-treatment. Each group was treated per os with trioxolanes at a single dose of 200 mg/kg. […] All groups were killed 4 weeks after treatment and the liver and intestine were removed and separated. The liver and intestine were compressed and alive male and female worms could be seen and counted. The effect of the compounds was evaluated by mean total and female worm burden.

[2] = system: Schistosoma mansoni adult worms (49-day-old); test: Effect on adult schistosomes (49-day-old) in infected mice; format: in vivo
Description: Mice were infected with 100 Schistosoma mansoni cercariae on day 49 post-treatment. Each group was treated per os with OZ compounds at single doses of 200, 400, and 600 mg/kg. Untreated mice served as the control. All groups were killed 4 weeks after treatment and the liver and intestine were removed and separated. The liver and intestine were compressed and alive male and female worms could be seen and counted.

[3] = system: ANKA strain of Plasmodium berghei; test: Single dose ED50/ED90/ED99 determination in infected mice; format: in vivo; conditions: for ED50: Plasmodium berghei
Description: In the single dose ED50/ED98/ED99 determinations, Moro SPF or NMRI mice (group of three) infected with the ANKA strain of Plasmodium berghei were treated on day one post-infection. […] The SSV consists of 0.5% w/v CMC, 0.5% v/v benzyl alcohol, 0.4% v/v Tween 80, and 0.9% w/v sodium chloride in water. Antimalarial activity was measured by percent reduction in parasitemia on day three post-infection. The ED50/ED90 values were calculated by nonlinear fitting.
The ED50, ED90, and ED99 values were calculated by non-linear fitting with statistical program and were expressed in mg/kg.

[4] = system: chloroquine-resistant K1 strain of P. falciparum; test: In vitro antimalarial semiautomated microdilution assay ([3H]-hypoxanthine incorporation), K1 strain; format: cell-based, Plasmodium falciparum
Procedure, shortened: (§1)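 IC50 comes from Logit regression of [3H]-hypoxanthine incorporation data. Intraerythrocytic P. falciparum taken from asynchronous stock cultures is exposed to OZ compounds in a semiautomated microdilution format.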

[5] = system: chloroquine-sensitive NF54 strain of P. falciparum; test: In vitro antimalarial semiautomated microdilution assay ([3H]-hypoxanthine incorporation), NF54 strain; format: cell-based, Plasmodium falciparum
Procedure, shortened: as §1

[6] = system: ANKA strain of P. berghei; test: Single dose STI in vivo screen in infected mice; set-up: species or system Plasmodium berghei; conditions: for Survival (days) 10 mg/kg po: single 10 mg/kg po in 3% ethanol and 7% Tween 80; for Survival (days) 10 mg/kg po / Survival (days) 10 mg/kg SSV po / Survival (days) 10 mg/kg sc: untreated 6-7 days; for Activity (%) 10 mg/kg po: single 10 mg/kg po in 3% ethanol and 7% Tween 80 on day 1 post-infection; for Survival (days) 10 mg/kg SSV po: single 10 mg/kg po in SSV; for Activity (%) 10 mg/kg SSV po: single 10 mg/kg po in standard suspending vehicle (SSV) on day 1 post-infection; for Survival (days) 10 mg/kg sc: single 10 mg/kg sc in 3% ethanol and 7% Tween 80; for Activity (%) 10 mg/kg sc: single 10 mg/kg sc in 3% ethanol and 7% Tween 80 on day 1 post-infection
P. berghei ANKA strain [7] = test: Divided 3x10 mg/kg vs single 1x30 mg/kg po dose in infected mice; format: in vivo, Plasmodium berghei; conditions: 10 mg/kg po on days 1, 2, 3 post-infection
Description: (§2) Moro NMRI male mice (Fu Albino specific pathogen free) weighing 18±2 g were infected intravenously (i.v.) with 2×10^7 P. berghei ANKA strain-infected erythrocytes from donor mice on day 0 of the experiment. From donor mice with circa 30% parasitemia, heparinized blood was taken and diluted in physiological saline to 10^8 parasitized erythrocytes per ml. An aliquot (0.2 ml) of this suspension was injected i.v. into experimental and control groups of mice. […] Throughout the experiments, mice were kept in groups of three or five animals in Makrolon type II cages in an air-conditioned animal room at 22 to 23° C.
(§3) They were administered per os (p.o.) in a total volume of 0.01 ml per gram of mouse. The activity of the compound was determined by a variety of methods outlined in subsequent sections. Survival time was also recorded, and survival to day 30 post-infection was considered to be a cure.
The first experiment conducted consisted of administration of a divided 3×10 mg/kg p.o. dose administered on days 1, 2, and 3 post-infection vs. a single 1×30 mg/kg po dose administered on day 1 post-infection. On day 4 post-infection, blood smears of all animals were prepared and stained with Giemsa. […] Compounds were administered orally in the SSV vehicle.

P. berghei ANKA strain [8] = test: Divided 3x3 mg/kg and 3x1 mg/kg po doses in infected mice; format: in vivo, Plasmodium berghei
Description: as §2, §3
The second experiment consists of administration of divided 3×3 mg/kg and 3×1 mg/kg po doses administered on days 1, 2, and 3 post-infection. On day 4 post-infection, blood smears of all animals were prepared and stained with Giemsa. […] Compounds were administered orally in the SSV vehicle.

[9] = single dose po in SSV on day 1 post-infection, parasitemia day 3, nonlinear fitting
[10] = percent reduction in parasitemia on day 3, 10 mg/kg
[11] = po, single dose po in SSV on day 1 post-infection, parasitemia day 3, nonlinear fitting
[12] = percent reduction in parasitemia on day 3

O=C1CCC2(CC1)OOC1(O2)C2CC3CC(C2)CC1C3 (stereo not shown) [OZ05]
% reduction of schistosomule growth at day 21 after per os application of 200 mg/kg, TWR (%) ([1]; po, 200 mg/kg, 504 h): 90% | % reduction of schistosomule growth at day 21 after per os application of 200 mg/kg, FWR (%) ([1]; single 200 mg/kg per os, 21-day-old schistosomules, female worm reduction rate): 88% | % reduction of adult worms growth at day 49 after per os application of 200 mg/kg, TWR (%) ([2]; single 200 mg/kg per os, 49-day-old adults, total worm reduction rate): 46% | Adult worms day 49, per os 200 mg/kg, DEAD WORM (%) ([2]; single 200 mg/kg per os, percentage of dead worm in the liver): 12% | % reduction of adult worms growth at day 49 after per os application of 400 mg/kg, TWR (%) ([2]; single 400 mg/kg per os, 49-day-old adults, total worm reduction rate): 23% | Adult worms day 49, per os 400 mg/kg, DEAD WORM (%) ([2]; single 400 mg/kg per os, percentage of dead worm in the liver): 32% | % reduction of adult worms growth at day 49 after per os application of 600 mg/kg, TWR (%) ([2]; single 600 mg/kg per os, 49-day-old adults, total worm reduction rate): 70% | Adult worms day 49, per os 600 mg/kg, DEAD WORM (%) ([2]; single 600 mg/kg per os, percentage of dead worm in the liver): 58% | ED90 ([3]; po): 12 mg/kg | ED99 [3, 9]: 15 mg/kg

c1ncn(C[C@H]2CC[C@]3(CC2)OOC2(O3)C3CC4CC(C3)CC2C4)n1 (stereo partly drawn) [OZ177, cis-Adamantane-2-spiro-3′-8′-(1′H-1′,2′,4′-triazol-1′-ylmethyl)-1′,2′,4-trioxaspiro[4.5]decane]
IC50 (ng/ml) K1 ([4]; chloroquine-resistant K1 strain, 72 h incubation): 0.9 ng/mL (≈ 2.61 nM) | IC50 (ng/ml) NF54 ([5]; chloroquine-sensitive NF54 strain, 72 h incubation): 1.7 ng/mL (≈ 4.92 nM) | Survival (days) 10 mg/kg po ([6]; 10 mg/kg): 12.3 days | Activity (%) 10 mg/kg po [6, 10]: 99.91% | Survival (days) 10 mg/kg SSV po ([6]; 10 mg/kg): 12.7 days | Activity (%) 10 mg/kg SSV po [6, 10]: 99.88% | Survival (days) 10 mg/kg sc ([6]; 10 mg/kg): 17.7 days | Activity (%) 10 mg/kg sc [6, 10]: 99.91% | ED50 [3, 11]: 2.1 mg/kg | ED90 [3, 9]: 3.7 mg/kg | ED99 [3, 9]: 5.8 mg/kg

Cc1ccc(S(=O)(=O)O)cc1.N[C@H]1CC[C@H](NC(=O)C[C@H]2CC[C@]3(CC2)OO[C@]2(O3)C3CC4CC(C3)CC2C4)CC1 [OZ315]
Survival (days) 3 mg/kg SSV po ([6]; single 3 mg/kg po in SSV): 9.6 days | Activity (%) 3 mg/kg SSV po ([6]; single 3 mg/kg po in SSV, percent reduction in parasitemia on day 3): 92% | Survival (days) 10 mg/kg SSV po [6]: 11.2 days | Activity (%) 10 mg/kg SSV po [6, 12]: 99.97% | Survival (days) 3 × 10 mg/kg p.o. SSV (P. berghei ANKA strain [7]): >30 days | Activity (%) 3 × 10 mg/kg p.o. SSV (P. berghei ANKA strain [7]; parasitemia reduction on day 4): 100% | Survival (P. berghei ANKA strain [8]; 3 × 1 mg/kg p.o. SSV on days 1, 2, 3 post-infection): 12.2 days | Survival (P. berghei ANKA strain [8]; 3 × 3 mg/kg p.o. SSV on days 1, 2, 3 post-infection): 22 days | Activity (%) (P. berghei ANKA strain [8]; 3 × 3 mg/kg p.o. SSV on days 1, 2, 3 post-infection, percent reduction of parasitemia vs control on day 4): 99.99% | Activity (%) (P. berghei ANKA strain [8]; po, 1 mg/kg, 96 h): 81% | Cures (P. berghei ANKA strain [8]; po, 3 mg/kg, 720 h): 0\5

O=C(NO)[C@H]1CC[C@@]2(CC1)OOC1(O2)C2CC3CC(C2)CC1C3 (stereo partly shown) [OZ127]
IC50 ([4]; Plasmodium falciparum, K1, 72 h, read-out: IC50 (ng/ml) K1, chloroquine-resistant K1 strain, 72 h incubation): 0.61 ng/mL (≈ 1.89 nM) | IC50 ([5]; Plasmodium falciparum, NF54, 72 h, read-out: IC50 (ng/ml) NF54, chloroquine-sensitive NF54 strain, 72 h incubation): 1.3 ng/mL (≈ 4.02 nM) | Survival (days) 10 mg/kg po [6]: 7.0 days | Activity (%) 10 mg/kg po [6, 12]: 95% | Survival (days) 10 mg/kg SSV po [6]: 7.7 days | Activity (%) 10 mg/kg SSV po [6, 12]: 98% | Survival (days) 10 mg/kg sc [6]: 7.7 days | Activity (%) 10 mg/kg sc [6, 12]: 97% | ED50 [3, 11]: 2.5 mg/kg | ED90 [3, 9]: 7.6 mg/kg | ED99 [3, 9]: 19 mg/kg
